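Cultured in 96-well plates, cells were exposed to test compound for 48 hours across five concentrations. GI50 marks 50% less growth. TGI: concentration producing complete growth inhibition.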
What was measured:
Assay in all cases: growth of human tumour cells (NCI), 48 h
[1] = test system: MALME-3M melanoma
[2] = test system: K-562 leukemia
[3] = test system: KM12 colon
[4] = test system: HOP-92 NSCLC
[5] = test system: TK-10 renal
[6] = test system: DU-145 prostate
[7] = test system: UACC-62 melanoma
[8] = test system: ACHN renal
[9] = test system: MDA-MB-435
[10] = test system: HOP-62 NSCLC
[11] = test system: 786-0 renal
[12] = test system: MOLT-4 leukemia
[13] = test system: UACC-257 melanoma
[14] = test system: NCI/ADR-RES ovarian
[15] = test system: COLO 205 colon
[16] = test system: NCI-H522 lung
[17] = test system: SF-295 CNS
[18] = test system: PC-3 prostate
[19] = test system: SW-620 colon
[20] = test system: HCT-15 colon
[21] = test system: SF-539 CNS
[22] = test system: HL-60(TB) leukemia
[23] = test system: OVCAR-3 ovarian
[24] = test system: HCC-2998 colon
[25] = test system: MCF7 breast
[26] = test system: SK-MEL-5 melanoma
[27] = test system: BT-549 breast
[28] = test system: T-47D breast
[29] = test system: HS 578T breast
[30] = test system: CCRF-CEM leukemia
[31] = test system: SNB-75 CNS
[32] = test system: NCI-H226 lung
[33] = test system: SK-MEL-28 melanoma
[34] = test system: HT29 colon
[35] = test system: MDA-MB-468 breast
[36] = test system: M14 melanoma
[37] = test system: SNB-19 CNS
[38] = test system: NCI-H460 lung
[39] = test system: OVCAR-8 ovarian
[40] = test system: LOX IMVI melanoma
[41] = test system: SN12C renal
[42] = test system: OVCAR-5 ovarian
[43] = test system: EKVX NSCLC
[44] = test system: CAKI-1 renal
[45] = test system: OVCAR-4 ovarian
[46] = test system: SK-OV-3 ovarian
[47] = test system: HCT-116 colon
[48] = test system: SF-268 CNS
[49] = test system: A498 renal
[50] = test system: SK-MEL-2 melanoma
[51] = test system: A549 NSCLC
[52] = test system: IGROV1 ovarian
[53] = test system: RPMI-8226 leukemia
[54] = test system: NCI-H23 lung
[55] = test system: RXF 393 renal
[56] = test system: U251 CNS

**Q.** What does the source list for `COC(=O)C(Cc1ccc(O)c(O)c1)NC(=O)C(CSC/C=C(\C)CCCC(C)CCCC(C)CCCC(C)C)NC(C)=O` (configuration not stated)?
**A.** GI50 [1]: 49.1 µM; TGI [1]: > 100 µM; GI50 [2]: 8.06 µM; TGI [2]: > 100 µM; GI50 [3]: 9.05 µM; TGI [3]: > 100 µM; GI50 [4]: 11.9 µM; TGI [4]: 30.1 µM; GI50 [5]: 22.3 µM; TGI [5]: 93.8 µM; GI50 [6]: > 100 µM; TGI [6]: > 100 µM; GI50 [7]: 17.1 µM; TGI [7]: 74.8 µM; GI50 [8]: 16.5 µM; TGI [8]: 42.7 µM; GI50 [9]: 41.5 µM; TGI [9]: > 100 µM; GI50 [10]: 13.6 µM; TGI [10]: 44.4 µM; GI50 [11]: 1.29 µM; TGI [11]: 2.76 µM; GI50 [12]: 3.34 µM; TGI [12]: > 100 µM; GI50 [13]: 69.2 µM; TGI [13]: > 100 µM; GI50 [14]: 33.3 µM; TGI [14]: > 100 µM; GI50 [15]: 15.5 µM; TGI [15]: > 100 µM; GI50 [16]: 1.82 µM; TGI [16]: 3.6 µM; GI50 [17]: 18.3 µM; TGI [17]: 43.8 µM; GI50 [18]: 3 µM; TGI [18]: 14.2 µM; GI50 [19]: 11.4 µM; TGI [19]: > 100 µM; GI50 [20]: 4.45 µM; TGI [20]: > 100 µM; GI50 [21]: 9.48 µM; TGI [21]: 26.1 µM; GI50 [22]: 6.67 µM; TGI [22]: 41.5 µM; GI50 [23]: 5.79 µM; TGI [23]: > 100 µM; GI50 [24]: 18 µM; TGI [24]: > 100 µM; GI50 [25]: 13.5 µM; TGI [25]: > 100 µM; GI50 [26]: 28 µM; TGI [26]: > 100 µM; GI50 [27]: 1.36 µM; TGI [27]: 3 µM; GI50 [28]: 7.78 µM; TGI [28]: 45.3 µM; GI50 [29]: 27.7 µM; TGI [29]: > 100 µM; GI50 [30]: 3.84 µM; TGI [30]: > 100 µM; GI50 [31]: 39.3 µM; TGI [31]: > 100 µM; GI50 [32]: 16.2 µM; TGI [32]: > 100 µM; GI50 [33]: 49.5 µM; TGI [33]: > 100 µM; GI50 [34]: 9.19 µM; TGI [34]: > 100 µM; GI50 [35]: 16.9 µM; TGI [35]: > 100 µM; GI50 [36]: 2.78 µM; TGI [36]: 12.5 µM; GI50 [37]: 3.81 µM; TGI [37]: 48.4 µM; GI50 [38]: 4.27 µM; TGI [38]: > 100 µM; GI50 [39]: 7.95 µM; TGI [39]: 32.7 µM; GI50 [40]: 10.5 µM; TGI [40]: > 100 µM; GI50 [41]: 30.9 µM; TGI [41]: > 100 µM; GI50 [42]: 29.5 µM; TGI [42]: > 100 µM; GI50 [43]: 30.3 µM; TGI [43]: > 100 µM; GI50 [44]: 31 µM; TGI [44]: > 100 µM; GI50 [45]: 25.6 µM; TGI [45]: > 100 µM; GI50 [46]: 17.5 µM; TGI [46]: 43.2 µM; GI50 [47]: 1.33 µM; TGI [47]: 2.81 µM; GI50 [48]: 26.7 µM; TGI [48]: > 100 µM; GI50 [49]: 30.3 µM; TGI [49]: > 100 µM; GI50 [50]: 25.1 µM; TGI [50]: 90 µM; GI50 [51]: 11.2 µM; TGI [51]: > 100 µM; GI50 [52]: 10.7 µM; TGI [52]: > 100 µM; GI50 [53]: 4.06 µM; TGI [53]: > 100 µM; GI50 [54]: 20 µM; TGI [54]: 64.2 µM; GI50 [55]: 16.1 µM; TGI [55]: 44.5 µM; GI50 [56]: 2.84 µM; TGI [56]: 11.2 µM
